Results published in paper PMC6934184, “Selective DNA-PKcs inhibition extends the therapeutic index of localized radiotherapy and chemotherapy” (The Journal of Clinical Investigation, 2019).

Biological target: T1, FLT3 D835Y (Homo sapiens, UniProt P36888, D835Y)
T1 construct: purchased Thermo Fisher Scientific (Life Technologies) SelectScreen
Assay: SelectScreen Z'LYTE
Format: biochemical
Outline: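 Compound tested in SelectScreen activity assays, Z'LYTE for CSF1R, CDK1/cyclin B and MAP2K6 and Adapta for CAMK1. ATP for CAMK1 was listed as 10, and Km app was used for CSF1R. Results are expressed in percent.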

Molecule CN(C(=O)CN1CCOCC1)c1ccc2sc3c(-c4cccc5c(=O)cc(N6CC7CCC(C6)O7)oc45)cccc3c2c1 [NU5455] has an inhibition at 1 µM of -3.9%.
